According to patent publication US20210196817A1, “Compositions and Methods for Selectively Modulating Tregs” (Augusta University Research Institute, Inc., priority 2014, published 2021):

Assays:
Tconvs (CD4+Foxp3-) [1] = assay: pAkt (S473) phosphorylation by flow cytometry in activated Tconvs; format: cell-based, mouse; conditions: 10 nM, 100 nM and 1 μM, 72 hrs, anti-CD3/anti-CD28/IL-2 activated
Method: (§1) Negative selection of CD4 T-cells from splenocytes was performed using magnetic bead separation technique according to the manufacturer's recommendations R&D Systems (Minneapolis, Minn.). Tregs (CD4+Foxp3+) and Tconvs (CD4+Foxp3-) were sorted from enriched CD4 cells using FACS ARIA II cell sorter (BD Biosciences).
(§2) Sorted Tregs and Tconvs were labeled with VCT according to the manufacturer's protocol (Life Technologies, NY). Cells stimulated with and without inhibitors in the presence of 10 μg/mL plate-bound anti-CD3, 2.5 μg/mL soluble anti-CD28, and 100 IU/mL IL-2. After 3 days, cells were stained with live/dead cell stain (Life Technologies, NY), fixed, permeabelized and stained with anti-CD4-FITC and anti-Foxp3-AlexaFluor 647. For pAkt (S473) and pS6 analysis, the signal was amplified by using a biotin-conjugated donkey anti-rabbit antibody (BD Biosciences) and Streptavidin-PE. After staining, cells were acquired on LSRII SORP flow cytometer and analyzed using FlowJo software (Tree Star).
(§3) The phosphorylation status of Akt (S473) in activated Tregs and Tconvs was measured by flow cytometry after treatment with titrated concentrations of the individual inhibitors. The concentrations choice was based on previously published IC50 of the inhibitors (Table 1) and the in-vitro viability of T-cells. Concentrations that maintain more than 70% viability of the T-cells were used.

Tregs (CD4+Foxp3+) [2] = assay: Continuous inhibition of PI3Kδ in vivo: Tregs, CD4 and CD8 cells, incl. tumor infiltration
Tregs (CD4+Foxp3+) [3] = assay: pAkt (S473) phosphorylation by flow cytometry in activated Tregs; format: cell-based, mouse; conditions: 10 nM, 100 nM and 1 μM, 72 hrs, anti-CD3/anti-CD28/IL-2 activated
Method: as §1, §2, §3

Tregs (CD4+Foxp3+) [4] = assay: Violet Cell Trace proliferation assay, Tregs; format: cell-based, mouse; conditions: all tested concentrations, 3 days, anti-CD3/anti-CD28/IL-2
Method: (§4) Sorted Tregs and Tconvs were labeled with VCT according to the manufacturer's protocol (Life Technologies, NY). Cells stimulated with and without inhibitors in the presence of 10 μg/mL plate-bound anti-CD3, 2.5 μg/mL soluble anti-CD28, and 100 IU/mL IL-2. After 3 days, cells were stained with live/dead cell stain (Life Technologies, NY), fixed, permeabelized and stained with anti-CD4-FITC and anti-Foxp3-AlexaFluor 647. […] After staining, cells were acquired on LSRII SORP flow cytometer and analyzed using FlowJo software (Tree Star).

Tconvs (CD4+Foxp3-) [5] = assay: Violet Cell Trace proliferation assay, Tconvs; format: cell-based, mouse; conditions: all tested concentrations, 3 days, anti-CD3/anti-CD28/IL-2
Method: as §4

PI3Kα = PI3Kα (Homo sapiens, UniProt P42336); conditions: previously published IC50; cited from earlier work
PI3Kδ = PI3Kδ (Homo sapiens, UniProt O00329); conditions: previously published IC50; cited from earlier work
PI3Kγ = PI3Kγ (Homo sapiens, UniProt P48736); conditions: previously published IC50; cited from earlier work
Chain of PI3Kγ (P48736 whole entry, species assumed): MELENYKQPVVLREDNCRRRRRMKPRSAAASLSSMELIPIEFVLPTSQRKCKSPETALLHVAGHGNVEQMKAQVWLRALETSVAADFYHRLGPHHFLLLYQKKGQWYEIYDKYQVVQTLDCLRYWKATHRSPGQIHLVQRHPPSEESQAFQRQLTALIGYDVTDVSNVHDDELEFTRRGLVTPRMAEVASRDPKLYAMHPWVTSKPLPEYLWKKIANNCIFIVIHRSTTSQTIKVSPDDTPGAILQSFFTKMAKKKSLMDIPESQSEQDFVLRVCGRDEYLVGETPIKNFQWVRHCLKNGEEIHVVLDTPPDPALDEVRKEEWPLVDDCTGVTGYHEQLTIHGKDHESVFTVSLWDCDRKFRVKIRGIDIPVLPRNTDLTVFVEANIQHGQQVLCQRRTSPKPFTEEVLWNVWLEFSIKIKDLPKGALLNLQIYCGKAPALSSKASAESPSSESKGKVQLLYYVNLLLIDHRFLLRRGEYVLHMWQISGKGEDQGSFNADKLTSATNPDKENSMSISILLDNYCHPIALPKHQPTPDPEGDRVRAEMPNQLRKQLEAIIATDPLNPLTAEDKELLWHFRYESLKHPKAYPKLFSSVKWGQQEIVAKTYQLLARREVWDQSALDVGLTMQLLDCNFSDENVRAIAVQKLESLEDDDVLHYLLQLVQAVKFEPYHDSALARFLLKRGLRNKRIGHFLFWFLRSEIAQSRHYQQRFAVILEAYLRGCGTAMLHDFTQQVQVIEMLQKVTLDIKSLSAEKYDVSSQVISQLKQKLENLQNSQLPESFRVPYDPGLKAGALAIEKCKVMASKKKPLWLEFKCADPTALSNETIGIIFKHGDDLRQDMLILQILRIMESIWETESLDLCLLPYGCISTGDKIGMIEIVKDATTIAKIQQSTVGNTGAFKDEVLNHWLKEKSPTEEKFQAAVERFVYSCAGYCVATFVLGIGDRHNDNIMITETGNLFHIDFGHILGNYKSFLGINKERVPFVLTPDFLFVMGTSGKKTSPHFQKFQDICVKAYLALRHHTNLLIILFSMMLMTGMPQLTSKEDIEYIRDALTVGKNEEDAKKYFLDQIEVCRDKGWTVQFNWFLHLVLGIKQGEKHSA

Chain of PI3Kα (P42336 whole entry, species assumed): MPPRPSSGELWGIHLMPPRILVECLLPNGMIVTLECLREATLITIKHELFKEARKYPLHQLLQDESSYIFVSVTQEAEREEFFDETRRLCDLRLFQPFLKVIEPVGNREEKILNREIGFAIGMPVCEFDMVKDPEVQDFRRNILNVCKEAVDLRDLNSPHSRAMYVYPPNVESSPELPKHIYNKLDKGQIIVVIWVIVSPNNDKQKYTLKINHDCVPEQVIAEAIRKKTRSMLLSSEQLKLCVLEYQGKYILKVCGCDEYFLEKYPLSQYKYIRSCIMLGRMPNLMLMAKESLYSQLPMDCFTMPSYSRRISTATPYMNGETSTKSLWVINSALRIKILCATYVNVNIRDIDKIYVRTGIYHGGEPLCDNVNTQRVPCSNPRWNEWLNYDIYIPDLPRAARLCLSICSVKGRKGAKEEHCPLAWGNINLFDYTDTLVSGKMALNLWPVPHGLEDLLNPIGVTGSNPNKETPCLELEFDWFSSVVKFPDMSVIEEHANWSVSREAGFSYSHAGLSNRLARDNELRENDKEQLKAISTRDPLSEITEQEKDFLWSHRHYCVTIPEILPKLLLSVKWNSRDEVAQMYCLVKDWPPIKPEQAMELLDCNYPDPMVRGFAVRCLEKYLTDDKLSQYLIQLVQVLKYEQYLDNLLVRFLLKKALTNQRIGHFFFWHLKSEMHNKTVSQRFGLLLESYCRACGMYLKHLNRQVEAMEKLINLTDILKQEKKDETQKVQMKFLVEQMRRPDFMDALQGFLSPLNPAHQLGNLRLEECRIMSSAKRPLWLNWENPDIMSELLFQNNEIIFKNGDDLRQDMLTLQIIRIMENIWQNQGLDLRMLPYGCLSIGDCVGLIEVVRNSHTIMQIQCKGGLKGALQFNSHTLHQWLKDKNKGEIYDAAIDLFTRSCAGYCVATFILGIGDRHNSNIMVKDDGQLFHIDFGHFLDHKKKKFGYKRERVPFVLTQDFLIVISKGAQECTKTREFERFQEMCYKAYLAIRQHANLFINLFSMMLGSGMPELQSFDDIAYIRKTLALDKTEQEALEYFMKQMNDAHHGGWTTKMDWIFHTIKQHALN
Chain of PI3Kδ (O00329 whole entry): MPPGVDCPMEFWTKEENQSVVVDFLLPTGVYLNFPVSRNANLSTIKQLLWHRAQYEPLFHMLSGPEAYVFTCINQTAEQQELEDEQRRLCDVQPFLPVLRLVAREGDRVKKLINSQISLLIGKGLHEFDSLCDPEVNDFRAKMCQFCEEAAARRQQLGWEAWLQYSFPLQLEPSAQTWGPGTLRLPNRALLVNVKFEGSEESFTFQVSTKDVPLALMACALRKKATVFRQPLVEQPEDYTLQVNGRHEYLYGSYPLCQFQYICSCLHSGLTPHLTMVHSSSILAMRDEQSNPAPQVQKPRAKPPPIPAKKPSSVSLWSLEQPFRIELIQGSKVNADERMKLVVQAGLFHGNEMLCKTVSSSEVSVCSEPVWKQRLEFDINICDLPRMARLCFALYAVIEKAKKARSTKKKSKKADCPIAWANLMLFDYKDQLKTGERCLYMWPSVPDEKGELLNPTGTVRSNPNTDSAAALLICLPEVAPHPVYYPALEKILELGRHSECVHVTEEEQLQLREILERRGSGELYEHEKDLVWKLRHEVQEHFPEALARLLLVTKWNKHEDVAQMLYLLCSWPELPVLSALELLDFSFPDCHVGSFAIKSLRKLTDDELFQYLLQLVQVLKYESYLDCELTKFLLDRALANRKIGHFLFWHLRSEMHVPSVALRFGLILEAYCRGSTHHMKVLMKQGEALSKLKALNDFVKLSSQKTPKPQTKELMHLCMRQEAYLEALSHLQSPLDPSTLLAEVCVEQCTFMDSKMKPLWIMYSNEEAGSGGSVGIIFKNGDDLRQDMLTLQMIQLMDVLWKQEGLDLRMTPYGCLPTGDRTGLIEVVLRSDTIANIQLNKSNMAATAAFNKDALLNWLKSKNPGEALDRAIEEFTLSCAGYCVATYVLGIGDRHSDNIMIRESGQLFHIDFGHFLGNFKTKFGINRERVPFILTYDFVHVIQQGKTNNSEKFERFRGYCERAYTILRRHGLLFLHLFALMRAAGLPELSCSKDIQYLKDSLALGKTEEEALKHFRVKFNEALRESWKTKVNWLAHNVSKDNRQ
Chain of PI3Kδ (P27986 whole entry partner): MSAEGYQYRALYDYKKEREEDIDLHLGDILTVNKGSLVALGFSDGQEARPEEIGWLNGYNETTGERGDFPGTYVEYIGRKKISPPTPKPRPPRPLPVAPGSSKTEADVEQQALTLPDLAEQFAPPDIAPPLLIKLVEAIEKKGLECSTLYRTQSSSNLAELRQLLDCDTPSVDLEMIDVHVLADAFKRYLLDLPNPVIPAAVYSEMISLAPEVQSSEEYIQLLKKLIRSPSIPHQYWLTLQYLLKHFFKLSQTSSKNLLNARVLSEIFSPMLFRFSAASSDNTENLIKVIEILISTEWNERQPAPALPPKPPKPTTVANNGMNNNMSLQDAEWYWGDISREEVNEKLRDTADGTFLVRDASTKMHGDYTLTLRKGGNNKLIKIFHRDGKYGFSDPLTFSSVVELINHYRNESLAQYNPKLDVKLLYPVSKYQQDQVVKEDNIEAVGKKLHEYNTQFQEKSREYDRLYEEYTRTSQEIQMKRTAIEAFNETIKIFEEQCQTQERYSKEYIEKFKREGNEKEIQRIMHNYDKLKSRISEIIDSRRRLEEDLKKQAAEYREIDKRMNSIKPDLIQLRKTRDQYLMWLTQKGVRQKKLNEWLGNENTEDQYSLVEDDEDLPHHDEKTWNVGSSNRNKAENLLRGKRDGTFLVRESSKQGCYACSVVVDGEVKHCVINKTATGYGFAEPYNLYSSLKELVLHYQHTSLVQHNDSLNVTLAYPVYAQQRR

SMILES | inhibition of pAkt (S473) in Tconvs (Tconvs (CD4+Foxp3-) [1]) | CD4 and CD8 cells in tumor (per 10^6 of CD45+CD3+) (Tregs (CD4+Foxp3+) [2]; 10 mg/kg, continuous treatment) | CD4 and CD8 cells under continuous treatment (Tregs (CD4+Foxp3+) [2]; day 26 vs day 12 baseline and vehicle) | inhibition of pAkt (S473) in Tregs (Tregs (CD4+Foxp3+) [3]) | inhibition of proliferation of Tregs (Tregs (CD4+Foxp3+) [4]) | inhibition of proliferation of Tconvs (Tconvs (CD4+Foxp3-) [5]) | IC50 (PI3Kα) | IC50 (PI3Kδ) | IC50 (PI3Kγ)
CC[C@H](Nc1ncnc2[nH]cnc12)c1nc2cccc(F)c2c(=O)n1-c1ccccc1 [CAL-101] | no effect | no effect | no effect |  |  |  |  |  | 
Cc1nc(NC(=O)N2CCC[C@H]2C(N)=O)sc1-c1csc(C(C)(C)C)n1 [A66] | No remarkable inhibition |  |  | No remarkable inhibition |  |  |  |  | 
Cc1cc(C(C)Nc2ccccc2)c2nc(N3CCOCC3)cc(=O)n2c1 (stereo not drawn) [TGX-221] | No remarkable inhibition |  |  | No remarkable inhibition | no inhibition | no inhibition | 5 µM | 100 nM | > 10 µM
